# Measurements published in US20190290641A1, “5-HYDROXYTRYPTAMINE 1B RECEPTOR-STIMULATING AGENT FOR SKIN AND/OR HAIR REPAIR” (INSTITUT PASTEUR, priority 2016, published 2019).
# Tests used:
# 5HT1 BR = target: T1, 5HT1 BR (Mus musculus, UniProt P28334); experiment: Wound closure with topical 5HT1 BR agonist, with or without 5HT1 BR antagonist; type: in vivo, mice; conditions: for size of the wound: 6 days post injury, control 15.09±2.3
# T1 construct: from tissue; host or cells: live mice, skin wound (in vivo)
# Protocol: Mice were treated with another 5HT1 BR agonist (CP 94253) directly on the wound (topic administration) at a concentration of 0.5 μmol, 12 h after a wound injury.
# No pretreatment was performed on this set of experiments and the drug was administered once a day for the totality of the duration of the wound closure. Controls group received PBS topically only, once a day for the total duration of the treatment.
# [1] = tested on: hair growth of shaved mice; experiment: Hair growth after shaving (clippers) or depilation (wax); type: in vivo; conditions: for hair regeneration after shaving: 5 and 10 days after shaving; for hair growth, differences between the groups: 24 days after shaving; for growth of hairs in both protocols (clippers, wax): after shaving or depilation
# Protocol: 2 different protocols were used to remove the hair from the mice. Mice were anesthetized using Isoflurane, initially in an induction chamber. The anaesthetised mice were transferred to the anaesthetic nose-cone and maintained on a heated block throughout the procedure (typically for about 5 minutes). In protocol 1, shaving was performed by cutting the hair: the mice were gently restrained manually and half of their back was shaved with portable electric hair clippers. In protocol 2, some hair was firstly removed with forceps and wax was used to unstack the hair. The wax was applied twice for maximum efficiency.
# The skin color of the mouse skin was measured three times in 5 different locations of the shaved skin randomly and averaged within a 16×16 mm2 field, using ImageJ. The luminance measured reflects the relative darkness ranging from white (0) to black (1 0 0).
# In order to study the influence of fluoxetine or vortioxetine on hair growth after a stress 2 different protocols were used on the same mouse. The half right part of the mouse back was shaved by cutting the hair with hairs clippers, and, in parallel, the hairs were removed using wax to unstack the hairs on the left part of the back (FIG. 4G). […] This was still true 10 days after shaving with longer hairs in the treated animals compared with placebo (FIG. 4J,M,N). […] These observations are in favor of a faster growth and faster regeneration but not bigger or longer hairs.
# [2] = tested on: hair and hair follicle of mice; experiment: Hair and skin measurements after treatment without shaving; type: in vivo; conditions: no shaving; for hair size: per os fluoxetine 18 mg/kg 6 weeks, vortioxetine 20 mg/kg 12 days; for hair follicle length / skin thickness: per os
# Protocol: (§1) All procedures in this study were approved by the Animal Care and Use committee at the Institut Pasteur (CETEA 2016-0007). Unless specified, 6 weeks old male mice C57Bl/6Rj were used in this study and housed on a 12:12 light/dark cycle in a pathogen free facility with controlled temperature and humidity. Food and drink were given ad libitum. Fluoxetine was dissolved in 0.9% NaCl and delivered either by intra peritoneal injections or per os at 18 mg/Kg. Control group received daily injections of 0.9% NaCl. For vortioxetine mice also received the product either dissolved in 96% Ethanol and then diluted 1/200 in water ad libitum at 20 mg/kg or dissolved in 96% Ethanol and then diluted 1/200 in 0.9% NaCl, final concentration 20 mg/kg body weight corrected. For topical applications vortioxetine was dissolved in 0.9% Nacl and directly applied in the wound the 3 first days and then on top on the wound the following days, every day.
# To study the possible effect of fluoxetine and vortioxetine on hair growth, fluoxetine (at 18 mg/kg) or vortioxetine (at 20 mg/kg) was provided per os to mice for 6 weeks and 12 days, respectively. […] However, when the hairs were challenged with shaving or depilation, a faster growth of hairs was observed
# [3] = tested on: 8 mm biopsy wound of the skin in C57Bl/6 mice; experiment: Wound healing after 8 mm skin biopsy, per os treatment, macroscopic wound size; type: in vivo; conditions: for wound in average smaller than placebo: between the 4th and the 14th day post-injury; for size of the wound vs placebo in the course of wound closure: until 16 days post injury
# Protocol: as §1
# (§2) Mice were anesthetized using Isoflurane, initially in an induction chamber. The anaesthetised mice were transferred to the anaesthetic nose-cone and maintained on a heated block throughout the procedure (typically for about 5 minutes). Analgesic was administered by subcutaneous injection e.g. buprenorphine 1.5 μl of […] solution, diluted in 30 μl sterile water. The area of the biopsy was shaved. Then an area of dorsal skin was rendered sterile by swabbing with Videne surgical scrub followed by sterile water. A 8 mm sterile punch biopsy was used to create an incision through the epidermis/dermis to the muscle fascia. Any bleeding at this step was carefully avoided. The punch biopsy was removed and the skin separated from muscle connective tissues using forceps or blunted scissors. Mice were then removed from the anesthetic nose-cone and housed in sterilised cages containing paper liner and paper bedding. They were kept warm (using a cage placed on a heated mat) until fully recovered from the effects of the anaesthetic.
# In order to assess the regenerative potential of the skin, a 8 mm biopsy of the skin was performed in C57Bl/6 mice, which were either treated per os with fluoxetine at 18 mg/kg or with vortioxetine at 20 mg/kg for 6 weeks and 12 days respectively (FIG. 1A) and during the healing process.
# [4] = tested on: 8 mm biopsy wound of the skin in C57Bl/6 mice; experiment: Histological analysis of the wound (H&E, re-epithelization, Ki67 immunostaining); type: in vivo; conditions: for cell infiltration in the dermis vs placebo / number of Ki67+ cells (proliferating cells) in the wound vs placebo / open wounded area vs placebo (H&E): 5 days post injury; for number of cycling cells vs placebo: 14 days post injury; for number of vessels: at the time of the biopsy (T0), H&E, per os treatment, placebo 4.8±1.3; for length of the epithelial tongues vs placebo: day 5 after injury; for distances between the tips of the epithelial tongues vs placebo: day 5 after wounding
# Protocol: Width of the wound and distance of the traversed epithelium were measured on H&E.
# Percent of re-epithelization was calculated according to the following formula: [distance covered by epithelium]/[distance between wound bed]×100.
# The extent of epithelialization and granulation tissue formation was determined on H&E-stained paraffin tissue sections. The length of the epithelial tongue was determined as the distance that the neo-epithelium had migrated from the margin of the wound as defined by the presence of hair follicles in non-wounded skin.
# Immunostaining was performed on formol fixed sections. Permeabilized with 0.5% Triton X-100 20 min at room temperature, washed, and blocked with 10% BSA for 30 min. Sections were incubated with primary antibodies overnight at 4° C. and with Alexa-conjugated secondary antibodies 1/250 and Hoechst for 45 minutes. Sections were then analysed using an automated axioscan (Zeiss) or inverted Observer.Z1 Apotome (Zeiss).
# To further characterize the wound closure, histological analysis was performed at the time of the biopsy (T0), 5 days post injury and 14 days post injury.
# hair growth in patients = conditions: about 100 patients, cited from earlier work
# [5] = tested on: 8 mm biopsy wound of the skin in C57Bl/6 mice; experiment: Wound healing after 8 mm skin biopsy, topical application without pre-treatment; type: in vivo
# Protocol: as §1, §2
# To further confirm the data, the same protocol was performed on C57Bl/6 mice wounded with 8 mm biopsy, but this time the mice were not pre-treated and received topical (300 μl) applications of vortioxetine at a concentration of 20 mg/ml diluted in 96% ethanol. The placebo received the same amount of 96% ethanol. […] Six days post injury, the size of the wound was smaller in the animals topically treated with vortioxetine (FIG. 1L). Eight days post injury, the size of the wound was 10 times lower than the placebo (FIG. 1L).
# [6] = first 24 hours, per os fluoxetine 18 mg/kg 6 weeks or vortioxetine 20 mg/kg 12 days pre-treatment and during healing
# [7] = six days post injury, per os, placebo 15.67
# [8] = sixteen days post injury, per os
# [9] = sixteen days post injury, per os, placebo 0.5
# T1 sequence (P28334 whole entry): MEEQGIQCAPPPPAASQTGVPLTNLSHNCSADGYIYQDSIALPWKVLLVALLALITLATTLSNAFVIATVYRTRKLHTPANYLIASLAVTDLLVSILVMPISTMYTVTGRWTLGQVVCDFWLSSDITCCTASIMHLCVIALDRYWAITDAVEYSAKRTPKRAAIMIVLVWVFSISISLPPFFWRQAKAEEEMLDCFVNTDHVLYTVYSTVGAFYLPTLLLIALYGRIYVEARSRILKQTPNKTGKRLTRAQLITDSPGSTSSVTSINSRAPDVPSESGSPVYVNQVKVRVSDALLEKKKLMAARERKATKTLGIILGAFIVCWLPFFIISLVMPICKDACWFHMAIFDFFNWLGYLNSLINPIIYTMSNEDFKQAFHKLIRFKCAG
SMILES,hair regeneration after shaving [1],hair growth vs placebo ([1]; 5 days after shaving),hair growth vs placebo ([1]; 10 days after shaving),"hair growth, differences between the groups [1]","growth of hairs in both protocols (clippers, wax) [1]",hair size [2],hair follicle length [2],skin thickness [2],wound in average smaller than placebo [3] [%],"size of the wound vs placebo [3, 6]","size of the wound vs placebo ([3]; four days post injury, per os)","area of the wound [3, 7] [mm^2]","skin regeneration at the macroscopic level [3, 8]","area of the wound [3, 9] [mm^2]",size of the wound vs placebo in the course of wound closure ([3]; per os),cell infiltration in the dermis vs placebo [4],number of Ki67+ cells (proliferating cells) in the wound vs placebo [4],open wounded area vs placebo (H&E) [4],number of cycling cells vs placebo [4],number of vessels [4] [vessels/mm^2],other results
CCCOc1ccc2[nH]cc(C3=CCNCC3)c2n1 [CP 94253],–,–,–,–,–,–,–,–,–,–,–,–,–,–,–,–,–,–,–,–,"size of the wound (5HT1 BR; topical 0.5 μmol once a day from 12 h after injury, no pretreatment): 7.7±2.5"
COc1ccc(NC(=O)c2ccc(-c3ccc(-c4noc(C)n4)cc3C)cc2)cc1N1CCN(C)CC1 [GR127935],–,–,–,–,–,–,–,–,–,–,–,–,–,–,–,–,–,–,–,–,"size of the wound (5HT1 BR; antagonist by osmotic pumps at 4 mg/kg concomitant with topical agonist CP 94253): 10.3±3.1; effect of the antagonist on the positive effects of the agonist (5HT1 BR; osmotic pumps at 4 mg/kg, concomitant with CP 94253): blocked partially"
CNCCC(Oc1ccc(C(F)(F)F)cc1)c1ccccc1 (stereo not drawn) [fluoxetine],"more advanced, faster regeneration of the hairs",More advanced hair growth,longer hairs,no differences,faster growth,No differences,No differences,did not change,27,No difference,smaller,11.48,virtually completely regenerated,0.05,constantly smaller,more cells,higher,smaller,No differences,8.2±2.7,"size of the wound vs placebo ([3]; two days post injury, per os): smaller; length of the epithelial tongues vs placebo [4]: significantly increased; distances between the tips of the epithelial tongues vs placebo [4]: significantly shorter"
CCOC(=O)c1ccnc(C(=O)OCC)c1 [stemoxydin],–,–,–,–,–,–,–,–,–,–,–,–,–,–,–,–,–,–,–,–,new hairs compared to the normal average of 50 to 100 new hairs growing every day (hair growth in patients; 90 days): 4%; average new hairs (hair growth in patients; in 90 days): 1500 new hairs
"Cc1ccc(Sc2ccccc2N2CCNCC2)c(C)c1 [vortioxetine, 1-[2-(2,4-Dimethylphenylsulfanyl)phenyl]piperazine]","more advanced, faster regeneration of the hairs",More advanced hair growth,longer hairs,no differences,faster growth,No differences,No differences,did not change,35,No difference,smaller,10.10,virtually completely regenerated,0.05,constantly smaller,more cells,higher,smaller,No differences,8.7±3.5,"sizes of the wounds vs placebo ([5]; T0 to 4 days post injury, topical 300 μl of 20 mg/ml, no pre-treatment): No differences; size of the wound relative to placebo ([5]; eight days post injury, topical): 10 times lower than the placebo; size of the wound vs placebo ([5]; six days post injury, topical): smaller; wound closure ([5]; sixteen days post injury, topical, placebo 0.20 mm^2): virtually completely closed; length of the epithelial tongues vs placebo [4]: significantly increased; distances between the tips of the epithelial tongues vs placebo [4]: significantly shorter"
